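Step 1: Grow cells in 96-well plates. Step 2: Expose to compound for 48 hours at 5 concentrations. Step 3: Interpolate endpoints linearly; if unreached, use highest concentration. GI50 is the concentration that inhibits growth by half. TGI: total growth inhibition.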
Key:
Assay in all cases: DTP human tumour cell line panel, 48 h
COLO 205 colon = test system: COLO 205 colon
MOLT-4 leukemia = test system: MOLT-4 leukemia
SK-MEL-28 melanoma = test system: SK-MEL-28 melanoma
HCT-116 colon = test system: HCT-116 colon
KM12 colon = test system: KM12 colon
BT-549 breast = test system: BT-549 breast
TK-10 renal = test system: TK-10 renal
SF-295 CNS = test system: SF-295 CNS
KM20L2 colon = test system: KM20L2 colon

SMILES	GI50 (COLO 205 colon)	TGI (COLO 205 colon)	GI50 (MOLT-4 leukemia)	TGI (MOLT-4 leukemia)	GI50 (SK-MEL-28 melanoma)	TGI (SK-MEL-28 melanoma)	GI50 (HCT-116 colon)	TGI (HCT-116 colon)	GI50 (KM12 colon)	TGI (KM12 colon)	GI50 (BT-549 breast)	TGI (BT-549 breast)	GI50 (TK-10 renal)	TGI (TK-10 renal)	GI50 (SF-295 CNS)	TGI (SF-295 CNS)	TGI (KM20L2 colon)	GI50 (KM20L2 colon)
COc1cc2nc(-c3ccc(Cl)cc3)cc(OCCCN3CCCC3)c2cc1OC	0.459 µM	3.12 µM	1.5 µM	3.47 µM	1.48 µM	4.28 µM	0.699 µM	10.1 µM	2.46 µM	10.2 µM	1.77 µM	7.37 µM	2.33 µM	7.41 µM	1.22 µM	2.94 µM		
COc1ccc2c(Cc3c4ccccc4cc4ccccc34)cncc2c1O		34.4 µM		8.82 µM		72.3 µM		16.1 µM		8.69 µM		53.1 µM		17.6 µM		8.35 µM		
CSc1ccc(OCC2OC2O)cc1 (stereo not given)		35.5 µM		> 75.5 µM				36.9 µM		> 95.9 µM				> 100 µM		> 100 µM	> 100 µM	
c1cc(CSSCc2ccncc2)ccn1		49.2 µM		23.7 µM		> 100 µM		> 100 µM		> 100 µM		> 100 µM		> 100 µM		> 100 µM		
C=C1CC[C@@H]2[C@](C)(COC(C)=O)[C@H](OC(C)=O)CC[C@@]2(C)[C@@H]1CC(Nc1ccc(S(=O)(=O)Nc2cc(C)on2)cc1)C1=CCOC1=O (stereo not given in full)	1.97 µM	4.34 µM	2.12 µM	6.39 µM	2.02 µM	4.31 µM	1.12 µM	2.39 µM	1.83 µM	3.69 µM	1.79 µM	3.47 µM	3.04 µM	7.11 µM	8.13 µM	21 µM		
CC[C@@H](C(=O)[C@H](C)[C@H](O)[C@@H](C)[C@H]1O[C@H]([C@@H](CC)C(=O)O)CC[C@H]1C)C1O[C@]2(C=C[C@@H](O)[C@]3(CC[C@@](C)([C@H]4CC[C@](O)(CC)[C@H](C)O4)O3)O2)[C@H](C)C[C@@H]1C (stereo not given in full)	0.203 µM	4.68 µM	1.26 µM	4.75 µM	0.84 µM	2.09 µM	0.722 µM	35.7 µM	0.723 µM	12.9 µM	0.239 µM	8.63 µM	1.68 µM	83.1 µM	0.474 µM	5.54 µM		
N#Cc1ccsc1NC(=O)COC(=O)c1cccc(S(=O)(=O)N2CCc3ccccc32)c1	27.5 µM	> 100 µM	6.68 µM	> 100 µM	22.4 µM	> 100 µM	4.78 µM	> 100 µM	38.6 µM	> 100 µM	34 µM	> 100 µM	> 100 µM	> 100 µM	33.4 µM	> 100 µM		
CCCCCCCCCCC/C=C\C[C@H](O)C/C=C1/C(=O)C=C[C@@H]1C/C=C\CCCC(=O)OC	1.21 µM	3.83 µM	0.838 µM	2.71 µM	0.84 µM	2.31 µM	0.734 µM	1.83 µM	0.852 µM	2.45 µM	0.75 µM	1.8 µM	1.95 µM	9.78 µM	1.37 µM	6.74 µM		
Cc1cc(=O)n2c3c(c4c(cc13)c(CO)cc(=O)n4C)OC2		> 100 µM				78.7 µM		15.8 µM		> 100 µM				62.4 µM		> 100 µM	> 100 µM	
CCCC[n+]1c(/C=C\c2c(OC)cc(OC)cc2OC)ccc2ccccc21	0.332 µM	1.19 µM	1.64 µM	8.92 µM	0.601 µM	2.75 µM	0.413 µM	3.48 µM	0.345 µM	1.59 µM	0.738 µM	3.19 µM	1.55 µM	6.26 µM	0.802 µM	3.25 µM		
CC(=O)[CH-]C(=O)c1ccccc1.CC(=O)[CH-]C(=O)c1ccccc1.CC[C@H](/C=C/C(C)[C@H]1CCC2[C@@H]3CC=C4C[C@@H]([O-])CC[C@]4(C)C3CC[C@@]21C)C(C)C.CC[O-].[Ti+4] (stereo not given in full)	> 100 µM	> 100 µM	> 100 µM	> 100 µM	> 100 µM	> 100 µM	> 100 µM	> 100 µM	> 100 µM	> 100 µM			> 100 µM	> 100 µM	> 100 µM	> 100 µM	> 100 µM	> 100 µM
c1ccc(Nc2nc(-c3ccccn3)cs2)nc1	0.411 µM	17.5 µM	0.301 µM	> 27.2 µM	1.5 µM	> 100 µM	0.326 µM	21.6 µM	0.381 µM	15.9 µM	0.713 µM	> 26 µM	0.573 µM	> 100 µM	0.297 µM	6.61 µM		
CCC(C)[C@H](NC(=O)NC(=O)NC(=O)CI)C(=O)OC (stereo not given in full)	1.77 µM	3.6 µM	2.47 µM	6.74 µM	13.6 µM	27.5 µM	6.05 µM	18.3 µM	16.6 µM	33.2 µM	10.6 µM	22.4 µM	2.96 µM	11.8 µM	15.2 µM	28.9 µM		
NC(=S)N/N=C/c1ccc(N)cn1		8.03 µM		> 10 µM		> 10 µM		> 10 µM		> 10 µM		> 10 µM		> 10 µM		> 10 µM		
O=C1C=CC(=Nc2ccccc2)c2ccccc21		20.3 µM		36.2 µM		42 µM		24.4 µM		25.6 µM		28 µM		31.6 µM		21.1 µM		
CN1CC[C@]2(c3cccc(O)c3)CC(=O)/C(=C/c3ccccc3)[C@H]1C2	3.06 µM	8.43 µM		6.96 µM		12.8 µM		7.29 µM		13.9 µM	3.64 µM	14.5 µM	6.32 µM	13.2 µM	4.5 µM	17 µM		
N#CC1(Nc2ccc(-c3ccc(NC4(C#N)CCCC4)cc3)cc2)CCCC1		> 100 µM		> 100 µM		> 100 µM		> 100 µM		> 100 µM		> 100 µM		> 100 µM		> 100 µM		

Reference: PubChem BioAssay (NCI)
